No end group written: not given here.
Legend:
Assay in all cases: biochemical
[1] = biological target: DRB1*0301 (Homo sapiens, UniProt P01903+P01911, A100K/A102G/A103R/A169T/F55Y/I96L/K41T/L162R/M171V/P40S/Q125H/Q178H/Q39Y/R42S/S66N/T106N/T262R/W38E/Y61H); format: binding
[2] = biological target: DRB1*1201 (Homo sapiens, UniProt P01903+P01911, A100R/A169T/D57E/D86V/F55L/H45Y/K41T/L162R/M171V/P40S/Q125H/Q178H/Q39Y/Q99D/R42G/S66L/T262R/V114A/V67L/W38E/Y59H/Y61H/Y89S); format: binding
[3] = biological target: DRB3*0101 (Homo sapiens, UniProt P01903+P79483); format: binding
[4] = biological target: DRB1*0802 (Homo sapiens, UniProt P01903+P01911, A100R/A103L/A169T/F76Y/H45Y/I96F/K41T/L162R/M171V/P40S/Q125H/Q178H/Q39Y/Q99D/R218S/R42G/S66Y/V115G/W38E); format: binding
[5] = biological target: DR1 (DRB1*0101) (Homo sapiens, UniProt P01903+P01911, A100R/D57E/F55L/F60I/F76Y/I96L/L162R/M171V/P40L/Q125E/R42F/V115G/Y59C); format: binding
[6] = biological target: DR4w4 (DRB1*0401) (Homo sapiens, UniProt P01903+P01911, A100K/A169T/F76Y/I96L/K127E/L162R/M171V/N62H/P40V/Q125Y/R42H/S133A/S149N/S66Y/V115G/V209L/W38E); format: binding
[7] = biological target: DR7 (DRB1*0701) (Homo sapiens, UniProt P01903+P01911, A100R/A102G/A103Q/D57E/D86V/E43K/F76Y/K127E/L162R/M171V/P40G/Q125H/Q99D/R33Q/R42Y/R54Q/S133A/S66F/T210M/V115G/Y107V/Y59L/Y89S); format: binding
[8] = biological target: DRB1*0405 (Homo sapiens, UniProt P01903+P01911, A100R/A169T/D86S/F76Y/I96L/K127E/L162R/M171V/N62H/P40V/Q125Y/R42H/S133A/S149N/S66Y/V115G/V209L/W38E); format: binding
[9] = biological target: DRB1*0901 (Homo sapiens, UniProt P01903+P01911, A100R/A103E/D57H/D86V/F55Y/F60I/F76Y/I96F/K127E/L162R/M171V/P40D/Q125H/Q99R/R33Q/R42F/S133A/S66N/T210M/V115G/W38K/Y107V/Y59G/Y89S); format: binding
[10] = biological target: DRB1*1302 (Homo sapiens, UniProt P01903+P01911, A100E/A169T/K41T/L162R/M171V/P40S/Q125H/Q178H/Q39Y/Q99D/R42S/S66N/T262R/V115G/W38E/Y61H); format: binding
DRB1*1302, sequence (P01903 26-254 limits assumed, other chains not shown): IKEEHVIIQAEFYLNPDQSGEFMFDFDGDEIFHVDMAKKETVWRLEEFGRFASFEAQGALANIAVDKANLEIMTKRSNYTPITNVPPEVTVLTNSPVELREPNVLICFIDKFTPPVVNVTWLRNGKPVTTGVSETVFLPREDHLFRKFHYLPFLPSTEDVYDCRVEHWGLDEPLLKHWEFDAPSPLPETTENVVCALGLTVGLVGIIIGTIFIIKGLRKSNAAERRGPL

[11] = biological target: DRB1*1501 (Homo sapiens, UniProt P01903+P01911); format: binding
[12] = biological target: DRB4*0101 (Homo sapiens, UniProt P01903+P13762, G164S); format: binding
[13] = biological target: DRB1*1101 (Homo sapiens, UniProt P01903+P01911, A100R/A169T/A87E/I96F/K41T/L162R/M171V/P40S/Q125H/Q178H/Q39Y/Q99D/R42S/S66Y/T262R/V115G/W38E); conditions: Binding affinity DRB1 *1101
DRB1*1101, sequence (P01903 26-254 limits assumed, other chains not shown): as above

[14] = biological target: DRB5*0101 (Homo sapiens, UniProt P01903+Q30154); conditions: Binding affinity DRB5 *0101

DRB1*0301, sequence (P01903 26-254 limits assumed, other chains not shown): as above

Row | Compound | IC50 [1] [µM] | IC50 [2] [µM] | IC50 [3] [µM] | IC50 [4] [µM] | IC50 [5] [µM] | IC50 [6] [µM] | IC50 [7] [µM] | IC50 [8] [µM] | IC50 [9] [µM] | IC50 [10] [µM] | IC50 [11] [µM] | IC50 [12] [µM] | IC50 [13] [µM] | IC50 [14] [µM]
1 | CC[C@H](C)[C@H](NC(=O)[C@@H](NC(=O)[C@@H]1CCCN1C(=O)CN)C(C)C)C(=O)N1CCC[C@H]1C(=O)N[C@@H](CCC(N)=O)C(=O)N[C@@H](CC(=O)O)C(=O)N[C@@H](Cc1c[nH]c2ccccc12)C(=O)N[C@@H](CO)C(=O)N[C@H](C(=O)N[C@@H](CCC(=O)O)C(=O)N[C@@H](CS)C(=O)N[C@@H](CCSC)C(=O)N[C@H](C(=O)N[C@H](C(=O)O)[C@@H](C)O)[C@@H](C)O)[C@@H](C)O [Peptide 68.0156] | > 20 | > 20 | > 20 |  |  |  |  |  |  |  |  |  |  | 
2 | EVFFQRLGIASGRAR [Peptide 68.0115] | > 20 | 2.94 | > 20 |  |  |  |  |  |  |  |  |  |  | 
3 | CC[C@H](C)[C@H](NC(=O)[C@H](Cc1c[nH]c2ccccc12)NC(=O)[C@@H](NC(=O)[C@@H](N)C(C)C)[C@@H](C)O)C(=O)NCC(=O)N[C@@H](C)C(=O)N[C@@H](C)C(=O)N1CCC[C@H]1C(=O)N[C@@H](CC(C)C)C(=O)N[C@H](C(=O)N[C@@H](CC(C)C)C(=O)N[C@@H](CO)C(=O)N[C@@H](CCCNC(=N)N)C(=O)N[C@H](C(=O)N[C@H](C(=O)O)C(C)C)[C@@H](C)CC)[C@@H](C)CC [Peptide 68.0060] | > 20 | 0.818 | > 20 |  |  |  |  |  |  |  |  |  |  | 
4 | CC[C@H](C)[C@H](NC(=O)[C@@H]1CCCN1C(=O)[C@H](CC(N)=O)NC(=O)[C@@H](N)Cc1c[nH]c2ccccc12)C(=O)N[C@@H](CC(C)C)C(=O)N[C@@H](CC(C)C)C(=O)N[C@@H](Cc1c[nH]c2ccccc12)C(=O)N[C@@H](CCC(N)=O)C(=O)N1CCC[C@H]1C(=O)N[C@H](C(=O)N1CCC[C@H]1C(=O)N[C@H](C(=O)N[C@@H](Cc1c[nH]cn1)C(=O)N[C@H](C(=O)N[C@H](C(=O)O)C(C)C)[C@@H](C)O)C(C)C)[C@@H](C)CC [Peptide 68.0035] | > 20 | 5.69 | > 20 | > 20 |  |  |  |  |  |  |  |  |  | 
5 | GVNHQHLPARRAEPQ [Peptide 1543.05] | > 20 |  | > 20 | > 20 | 0.276 | > 20 | 16.8 | > 20 | > 20 | > 20 | > 20 | 14.6 | > 20 | > 20
6 | CC[C@H](C)[C@H](NC(=O)[C@H](CC(=O)O)NC(=O)[C@H](Cc1c[nH]cn1)NC(=O)[C@@H](NC(=O)[C@@H](NC(=O)[C@@H](NC(=O)[C@H](CCC(N)=O)NC(=O)[C@H](CC(C)C)NC(=O)[C@H](CCC(=O)O)NC(=O)[C@@H](NC(=O)[C@H](CS)NC(=O)[C@@H](N)CC(C)C)[C@@H](C)O)[C@@H](C)O)[C@@H](C)O)[C@@H](C)CC)C(=O)N[C@H](C(=O)N[C@@H](CC(C)C)C(=O)N[C@@H](CCC(=O)O)C(=O)O)[C@@H](C)CC [Peptide 1543.24] | 0.08 | > 20 | > 20 | > 20 |  |  |  |  | > 20 |  | > 20 |  | > 20 | > 20
7 | CC[C@H](C)[C@H](NC(=O)[C@@H]1CCCN1C(=O)[C@@H](N)CC(N)=O)C(=O)N[C@@H](CC(C)C)C(=O)N[C@@H](CC(C)C)C(=O)N[C@@H](Cc1c[nH]c2ccccc12)C(=O)N[C@@H](CCC(N)=O)C(=O)N1CCC[C@H]1C(=O)N[C@H](C(=O)N1CCC[C@H]1C(=O)N[C@H](C(=O)N[C@@H](Cc1c[nH]cn1)C(=O)N[C@H](C(=O)N[C@H](C(=O)N1CCC[C@H]1C(=O)O)C(C)C)[C@@H](C)O)C(C)C)[C@@H](C)CC [Peptide 68.0036] | > 20 | 0.612 | > 20 |  |  |  |  |  |  |  |  |  |  | > 20
8 | CC[C@H](C)[C@H](NC(=O)[C@@H]1CCCN1)C(=O)N[C@@H](CC(C)C)C(=O)N[C@@H](CC(C)C)C(=O)N[C@@H](Cc1c[nH]c2ccccc12)C(=O)N[C@@H](CCC(N)=O)C(=O)N1CCC[C@H]1C(=O)N[C@H](C(=O)N1CCC[C@H]1C(=O)N[C@H](C(=O)N[C@@H](Cc1c[nH]cn1)C(=O)N[C@H](C(=O)N[C@H](C(=O)N1CCC[C@H]1C(=O)N[C@@H](CC(C)C)C(=O)O)C(C)C)[C@@H](C)O)C(C)C)[C@@H](C)CC [Peptide 68.0037] | > 20 | 2.37 | > 20 | > 20 |  |  |  |  |  |  |  |  |  | > 20
9 | NTTPIIHLKGDKNSL [Peptide 1601.37] | 7.48 |  | > 20 | 1.9 | 0.86 | 11.9 | 18.8 | > 20 | > 20 | 5.44 | 11.4 | 0.075 | > 20 | > 20
10 | LSQRLNVCQDKILEH [Peptide 1601.21] | 0.21 |  | > 20 | > 20 | > 20 | > 20 | > 20 | 4.63 | > 20 | > 20 | > 20 | 5.03 | > 20 | > 20
11 | PCHTTKLLHRDSVDS [Peptide 1601.07] | 7.26 |  | > 20 | 2.78 | > 20 | > 20 | > 20 | > 20 | > 20 | > 20 | > 20 | 0.672 | 2.96 | > 20
12 | CC(C)C[C@H](NC(=O)[C@@H](NC(=O)[C@H](CCC(N)=O)NC(=O)[C@H](Cc1c[nH]c2ccccc12)NC(=O)[C@@H]1CCCN1C(=O)[C@H](CCC(N)=O)NC(=O)[C@@H](N)CO)C(C)C)C(=O)N[C@H](C(=O)N[C@@H](C)C(=O)N[C@@H](CO)C(=O)N[C@@H](CCCNC(=N)N)C(=O)NCC(=O)N[C@@H](CCCNC(=N)N)C(=O)N[C@@H](C)C(=O)N[C@H](C(=O)O)C(C)C)C(C)C [Peptide 68.0061] | > 20 | 8.78 | > 20 |  |  |  |  |  |  |  |  |  |  | 
13 | CC(C)C[C@H](NC(=O)[C@@H](NC(=O)CN)C(C)C)C(=O)N[C@H](C(=O)N[C@@H](Cc1c[nH]cn1)C(=O)N1CCC[C@H]1C(=O)N[C@@H](CCC(N)=O)C(=O)N[C@@H](Cc1c[nH]c2ccccc12)C(=O)N[C@H](C(=O)N[C@@H](CC(C)C)C(=O)N[C@H](C(=O)N[C@@H](C)C(=O)N[C@@H](C)C(=O)N[C@@H](Cc1c[nH]cn1)C(=O)N[C@@H](CS)C(=O)O)[C@@H](C)O)C(C)C)C(C)C [Peptide 68.0063] | > 20 | 7.49 | > 20 |  |  |  |  |  |  |  |  |  |  | 
14 | CC(C)C[C@H](NC(=O)[C@H](Cc1ccccc1)NC(=O)CNC(=O)[C@H](CC(C)C)NC(=O)[C@H](CO)NC(=O)[C@H](CC(C)C)NC(=O)[C@H](CO)NC(=O)[C@H](C)NC(=O)[C@H](C)NC(=O)[C@H](CCCNC(=N)N)NC(=O)[C@H](C)NC(=O)[C@H](CC(C)C)NC(=O)[C@H](CC(C)C)NC(=O)[C@H](CC(C)C)NC(=O)[C@@H]1CCCN1)C(=O)O [Peptide 68.0021] | > 20 | 1.51 | > 20 |  |  |  |  |  |  |  |  |  |  | 
15 | DSVDSVNCGVISAAA [Peptide 1601.24] | > 20 |  | > 20 | > 20 | 0.916 | 1.28 | 2.14 | 13.6 | 6.73 | 0.736 | > 20 | 8.71 | > 20 | > 20
